What was measured:
Format in all cases: physicochemical
[1] = Number of moles of bound water per mole of complex (TG-DTA); details: for Bound water (number of moles of bound water per mole of complex): Table 1, dried samples for the ternary complexes
Experimental: The number of moles of bound water per mole of complex was measured using a TG-DTA 2000 from MAC Science.
A 20 g quantity of Eu(PMS)3 was added to 100 mL of isopropanol, then 43 g ([…] the molar amount of the Eu(PMS)3) of triphenylphosphine oxide (hereinafter referred to as TPPO) was added, and the system was refluxed for 3 hours, and then gradually cooled. The resulting white powder was filtered off. The white powder thus obtained was washed with hot n-hexane, and recrystallized with water-methanol to obtain 44 g of Eu(PMS)3(TPPO)8 in the form of white acicular crystals (yield: 85%). The TG-DTA was measured for these crystals, and it was found from the weight reduction at 100° C. that the number of moles of bound water per mole of complex was 2.93. The IR, NMR, UV absorption characteristics, and elemental analysis results for the obtained Eu(PMS)3(TPPO)8(H2O)2.93 are given below.
Eu(PMS)3(TPPO)8(H2O)2.93 obtained by the above synthesis method was dried in vacuo for 3 hours at 140° C. and a reduced pressure of […]. TG-DTA measurement for the resulting white powder was carried out to obtain a weight reduction at 100° C. It was found from the obtained value that the number of moles of bound water per mole of complex was 0.18.

[2] = Miscibility with a polymer matrix, visual evaluation; design: key to Miscibility, PMMA: ⊚: dissolves up to 30 wt %; ◯: dissolves up to 5 wt %; Δ: disperses up to 5 wt %, but there is turbidity; X: repelled at the polymer surface
Experimental: (§1) The miscibility of the rare earth complex with various media was evaluated as follows.
2) Miscibility with a Polymer Matrix
The rare earth complex serving as the sample was added in the concentrations listed with the evaluation criteria below relative to various media, and the miscibility was visually evaluated according to the following criteria. • ⊚: dissolves up to 30 wt % • ◯: dissolves up to 5 wt % • Δ: disperses up to 5 wt %, but there is turbidity • X: repelled at the polymer surface

[3] = Luminescence quantum yield and luminescence intensity in solution
Experimental: (§2) The intensity of luminescence and the luminescence quantum yield, the quotient of dividing the number of photons emitted from a sample by the number of photons absorbed into the sample, were measured with an SS-25 from JASCO Corporation.
The luminescence quantum yield of an acetonitrile solution of the Eu(PMS)3(TPPO)8 obtained in Example 1 (europium ion concentration: 0.05 mol/L) was measured (excitation wavelength: 465 nm, maximum luminescence wavelength: 612 nm, luminescence wavelength used in measurement: 612 nm).
The solutions prepared in Examples 12 to 14 and Comparative Examples 7 to 9 and Comparative Example B were measured for luminescence intensity at the respective maximum luminescence wavelengths.
The relative luminescence intensity of the solutions used in Examples 12 to 14 and Comparative Example B: (luminescence intensity in each of Examples 12 to 14)/(luminescence intensity in Comparative Example 7) was calculated, letting 1 be the luminescence intensity in Comparative Example 7 (solution of a rare earth complex in which the ligand Z was not coordinated).
Similarly, the relative luminescence intensity in Comparative Example 9: (luminescence intensity in Comparative Example 9)/(luminescence intensity in Comparative Example 8) was calculated, letting 1 be the luminescence intensity in Comparative Example 8 (solution of a known β-diketone-type of rare earth complex in which the ligand Z was not coordinated). The relative luminescence intensity of the solution used in Comparative Example B was 1.6 times.
The luminescence quantum yield of an acetone-d6 solution of the Nd(PMS)3(TPPO)8 obtained in Example 2 (neodymium ion concentration: 0.05 mol/L) was measured (excitation wavelength: 585 nm, maximum luminescence wavelength: 1064 nm, luminescence wavelength used in measurement: 1064 nm).
The solutions prepared in Examples 15 and 16 and Comparative Examples 10 were measured for luminescence intensity at the respective maximum luminescence wavelengths. The relative luminescence intensity in Examples 15 and 16: (luminescence intensity in each of Examples 15 and 16)/(luminescence intensity in Comparative Example 10) was calculated, letting 1 be the luminescence intensity in Comparative Example 10 (rare earth complex in which the ligand Z was not coordinated).

[4] = Miscibility with solvents, visual evaluation at 5 wt %; design: key: ⊚: dissolves at room temperature; ◯: dissolves when heated for 5 minutes at 40° C.; Δ: dissolves under heating, but cooling precipitates crystals; X: does not dissolve; details: complex added at 5 wt %
Experimental: as §1
1) Miscibility with Solvents

[5] = Luminescence quantum yield and luminescence intensity in PMMA polymer matrix composition; details: PMMA rod; for Luminescence quantum yield: rare earth ion 0.7 wt %
Experimental: as §2
A 1 mL quantity of refined anhydrous methyl methacrylate (MMA), 0.5 mg of AIBN, and 148 mg (0.7 wt %) as the rare earth ion concentration) of the Eu (PMS)3 (TPPO)8 obtained in Example 1 were mixed, the mixture was transferred to a Pyrex tube, and the inside of the tube was deaerated and then sealed. By reacting for 5 hours at 60° C., the polymerization of MMA was carried out. The resulting PMMA containing Eu(PMS)3 (TPPO)8 was taken out of the Pyrex tube, and a rod-shaped polymer matrix composition was obtained.
(§3) The polymer matrix compositions prepared in Examples 17 to 19 and Comparative Example 11 were measured for luminescence intensity at the respective maximum luminescence wavelengths. The relative luminescence intensity in Examples 17 to 19: (luminescence intensity in each of Examples 17 to 19)/(luminescence intensity in Comparative Example 11) was calculated, letting 1 be the luminescence intensity in Comparative Example 11 (rare earth complex in which the ligand Z was not coordinated).
A rod-shaped polymer matrix composition containing […] was obtained in the same manner as in Example 17, except that 148 mg (rare earth ion concentration: 0.7 wt %) of the Nd(PMS)3 (TPPO)8 obtained in Example 2 was used instead of Eu(PMS)3 (TPPO)8.
as §3, with “20 and 21” for “17 to 19”, “12” for “11”, “20 and 21:” for “17 to 19:”, “20 and 21)/(luminescence” for “17 to 19)/(luminescence”, “12)” for “11)”

[6] = acetonitrile solution, Eu 0.05 mol/L, relative to Eu(HFA)3 (Comparative Example 8) = 1
[7] = acetonitrile solution, europium ion 0.05 mol/L, excitation 465 nm, luminescence 612 nm
[8] = before drying (crystals as obtained), weight reduction at 100° C.
[9] = Eu 0.7 wt %, relative to Eu(PMS)3 (Comparative Example 11) = 1
[10] = excitation 465 nm, luminescence 612 nm
[11] = acetonitrile solution, Eu 0.05 mol/L, relative to Eu(PMS)3 (Comparative Example 7) = 1

**Q.** For `O=C(C=C([O-])C(F)(F)F)C(F)(F)F.O=C(C=C([O-])C(F)(F)F)C(F)(F)F.O=C(C=C([O-])C(F)(F)F)C(F)(F)F.O=P(c1ccccc1)(c1ccccc1)c1ccccc1.O=P(c1ccccc1)(c1ccccc1)c1ccccc1.[Eu+3]` [Eu(HFA)3(TPPO)2, reference compound], which “Bound water (number of moles of bound water per mole of complex)” value [1] is on record?
**A.** 0.00

**Q.** What about the “Miscibility, Epoxy resin” value [2] of the same molecule?
**A.** ◯ (dissolves up to 5 wt %)

**Q.** What about the “Miscibility, Nafion” value [2] of the same molecule?
**A.** Δ (disperses up to 5 wt %, but there is turbidity)

**Q.** What about the “Miscibility, PMMA” value [2] of the same molecule?
**A.** Δ (disperses up to 5 wt %, but there is turbidity)

**Q.** And the Relative luminescence intensity [3, 6]?
**A.** 4.6

**Q.** And the “Miscibility, Acetone” value [4]?
**A.** ⊚

**Q.** What about the “Miscibility, Chloroform” value [4] of the same molecule?
**A.** ◯

**Q.** And the “Miscibility, Toluene” value [4]?
**A.** ◯

**Q.** What about the “Miscibility, Water” value [4] of the same molecule?
**A.** X

**Q.** For `O=C(C=C([O-])C(F)(F)F)C(F)(F)F.O=C(C=C([O-])C(F)(F)F)C(F)(F)F.O=C(C=C([O-])C(F)(F)F)C(F)(F)F.[Eu+3]` [Eu(HFA)3, reference compound], which “Bound water (number of moles of bound water per mole of complex)” value [1] is on record?
**A.** 2.00

**Q.** What about the “Miscibility, Epoxy resin” value [2] of the same molecule?
**A.** ◯ (dissolves up to 5 wt %)

**Q.** And the “Miscibility, Nafion” value [2]?
**A.** Δ (disperses up to 5 wt %, but there is turbidity)

**Q.** And the “Miscibility, PMMA” value [2]?
**A.** X

**Q.** And the Relative luminescence intensity [3, 6]?
**A.** 1.0

**Q.** What about the Luminescence quantum yield [3, 7] of the same molecule?
**A.** 8.0%

**Q.** What about the “Miscibility, Acetone” value [4] of the same molecule?
**A.** ⊚

**Q.** And the “Miscibility, Chloroform” value [4]?
**A.** X

**Q.** And the “Miscibility, Toluene” value [4]?
**A.** X

**Q.** And the “Miscibility, Water” value [4]?
**A.** X

**Q.** With `O=S(=O)([N-]S(=O)(=O)C(F)(F)F)C(F)(F)F.O=S(=O)([N-]S(=O)(=O)C(F)(F)F)C(F)(F)F.O=S(=O)([N-]S(=O)(=O)C(F)(F)F)C(F)(F)F.O=S(c1ccccc1)c1ccccc1.O=S(c1ccccc1)c1ccccc1.O=S(c1ccccc1)c1ccccc1.O=S(c1ccccc1)c1ccccc1.O=S(c1ccccc1)c1ccccc1.O=S(c1ccccc1)c1ccccc1.O=S(c1ccccc1)c1ccccc1.O=S(c1ccccc1)c1ccccc1.[Eu+3]` [Eu(PMS)3(DPSO)8] as the molecule, how does the “Bound water (number of moles of bound water per mole of complex)” value [1] read?
**A.** 0.00

**Q.** What about the “Number of moles of bound water per mole of complex” value [1, 8] of the same molecule?
**A.** water was not coordinated

**Q.** What about the “Miscibility, Epoxy resin” value [2] of the same molecule?
**A.** ◯ (dissolves up to 5 wt %)

**Q.** And the “Miscibility, Nafion” value [2]?
**A.** ◯ (dissolves up to 5 wt %)

**Q.** What about the “Miscibility, PMMA” value [2] of the same molecule?
**A.** ◯ (dissolves up to 5 wt %)

**Q.** What about the Relative luminescence intensity [5, 9] of the same molecule?
**A.** 710

**Q.** What about the Luminescence quantum yield [5, 10] of the same molecule?
**A.** 39.0%

**Q.** And the Relative luminescence intensity [3, 11]?
**A.** 41.7

**Q.** And the Luminescence quantum yield [3, 7]?
**A.** 32.0%

**Q.** What about the “Miscibility, Acetone” value [4] of the same molecule?
**A.** ⊚

**Q.** And the “Miscibility, Chloroform” value [4]?
**A.** ◯

**Q.** And the “Miscibility, Toluene” value [4]?
**A.** ◯

**Q.** What about the “Miscibility, Water” value [4] of the same molecule?
**A.** X

**Q.** Which “Bound water (number of moles of bound water per mole of complex)” value [1] does the source give for `O=P(c1ccccc1)(c1ccccc1)c1ccccc1.O=P(c1ccccc1)(c1ccccc1)c1ccccc1.O=P(c1ccccc1)(c1ccccc1)c1ccccc1.O=P(c1ccccc1)(c1ccccc1)c1ccccc1.O=P(c1ccccc1)(c1ccccc1)c1ccccc1.O=P(c1ccccc1)(c1ccccc1)c1ccccc1.O=P(c1ccccc1)(c1ccccc1)c1ccccc1.O=P(c1ccccc1)(c1ccccc1)c1ccccc1.O=S(=O)([N-]S(=O)(=O)C(F)(F)F)C(F)(F)F.O=S(=O)([N-]S(=O)(=O)C(F)(F)F)C(F)(F)F.O=S(=O)([N-]S(=O)(=O)C(F)(F)F)C(F)(F)F.[Eu+3]` [Eu(PMS)3(TPPO)8] here?
**A.** 0.18

**Q.** What about the “Number of moles of bound water per mole of complex” value ([1]; after drying in vacuo at 140° C.) of the same molecule?
**A.** 0.18

**Q.** What about the “Number of moles of bound water per mole of complex” value [1, 8] of the same molecule?
**A.** 2.93

**Q.** What about the “Miscibility, Epoxy resin” value [2] of the same molecule?
**A.** ◯ (dissolves up to 5 wt %)

**Q.** And the “Miscibility, Nafion” value [2]?
**A.** ◯ (dissolves up to 5 wt %)

**Q.** What about the “Miscibility, PMMA” value [2] of the same molecule?
**A.** ◯ (dissolves up to 5 wt %)

**Q.** What about the Relative luminescence intensity [5, 9] of the same molecule?
**A.** 15466

**Q.** What about the Luminescence quantum yield [5, 10] of the same molecule?
**A.** 19.0%

**Q.** What about the Relative luminescence intensity [3, 11] of the same molecule?
**A.** 45.1

**Q.** And the Luminescence quantum yield [3, 7]?
**A.** 5.6%

**Q.** What about the “Miscibility, Acetone” value [4] of the same molecule?
**A.** ⊚

**Q.** And the “Miscibility, Chloroform” value [4]?
**A.** ⊚

**Q.** What about the “Miscibility, Toluene” value [4] of the same molecule?
**A.** ◯

**Q.** What about the “Miscibility, Water” value [4] of the same molecule?
**A.** X

**Q.** For `O=S(=O)([N-]S(=O)(=O)C(F)(F)F)C(F)(F)F.O=S(=O)([N-]S(=O)(=O)C(F)(F)F)C(F)(F)F.O=S(=O)([N-]S(=O)(=O)C(F)(F)F)C(F)(F)F.O=S(c1ccccc1)c1ccccc1.O=S(c1ccccc1)c1ccccc1.O=S(c1ccccc1)c1ccccc1.O=S(c1ccccc1)c1ccccc1.O=S(c1ccccc1)c1ccccc1.O=S(c1ccccc1)c1ccccc1.O=S(c1ccccc1)c1ccccc1.O=S(c1ccccc1)c1ccccc1.[Nd+3]` [Nd(PMS)3(DPSO)8], which “Bound water (number of moles of bound water per mole of complex)” value [1] is on record?
**A.** 0.00

**Q.** What about the “Miscibility, Epoxy resin” value [2] of the same molecule?
**A.** ◯ (dissolves up to 5 wt %)

**Q.** And the “Miscibility, Nafion” value [2]?
**A.** ◯ (dissolves up to 5 wt %)

**Q.** And the “Miscibility, PMMA” value [2]?
**A.** ◯ (dissolves up to 5 wt %)

**Q.** What about the Relative luminescence intensity ([5]; Nd 0.7 wt %, relative to Nd(PMS)3 (Comparative Example 12) = 1) of the same molecule?
**A.** 90

**Q.** And the Luminescence quantum yield ([5]; excitation 585 nm, luminescence 1064 nm)?
**A.** 0.9%

**Q.** What about the Relative luminescence intensity ([3]; acetone-d6 solution, Nd 0.05 mol/L, relative to Nd(PMS)3 (Comparative Example 10) = 1) of the same molecule?
**A.** 1.6

**Q.** And the Luminescence quantum yield ([3]; acetone-d6 solution, neodymium ion 0.05 mol/L, excitation 585 nm, luminescence 1064 nm)?
**A.** 1.3%

**Q.** What about the “Miscibility, Acetone” value [4] of the same molecule?
**A.** ⊚

**Q.** And the “Miscibility, Chloroform” value [4]?
**A.** ◯

**Q.** And the “Miscibility, Toluene” value [4]?
**A.** ◯

**Q.** What about the “Miscibility, Water” value [4] of the same molecule?
**A.** X
